The values that follow come from BindingDB's records for PubMed 29032032 (Quaid-I-Azam University, 2017).

Sequence of Maltase-glucoamylase (O43451 whole entry): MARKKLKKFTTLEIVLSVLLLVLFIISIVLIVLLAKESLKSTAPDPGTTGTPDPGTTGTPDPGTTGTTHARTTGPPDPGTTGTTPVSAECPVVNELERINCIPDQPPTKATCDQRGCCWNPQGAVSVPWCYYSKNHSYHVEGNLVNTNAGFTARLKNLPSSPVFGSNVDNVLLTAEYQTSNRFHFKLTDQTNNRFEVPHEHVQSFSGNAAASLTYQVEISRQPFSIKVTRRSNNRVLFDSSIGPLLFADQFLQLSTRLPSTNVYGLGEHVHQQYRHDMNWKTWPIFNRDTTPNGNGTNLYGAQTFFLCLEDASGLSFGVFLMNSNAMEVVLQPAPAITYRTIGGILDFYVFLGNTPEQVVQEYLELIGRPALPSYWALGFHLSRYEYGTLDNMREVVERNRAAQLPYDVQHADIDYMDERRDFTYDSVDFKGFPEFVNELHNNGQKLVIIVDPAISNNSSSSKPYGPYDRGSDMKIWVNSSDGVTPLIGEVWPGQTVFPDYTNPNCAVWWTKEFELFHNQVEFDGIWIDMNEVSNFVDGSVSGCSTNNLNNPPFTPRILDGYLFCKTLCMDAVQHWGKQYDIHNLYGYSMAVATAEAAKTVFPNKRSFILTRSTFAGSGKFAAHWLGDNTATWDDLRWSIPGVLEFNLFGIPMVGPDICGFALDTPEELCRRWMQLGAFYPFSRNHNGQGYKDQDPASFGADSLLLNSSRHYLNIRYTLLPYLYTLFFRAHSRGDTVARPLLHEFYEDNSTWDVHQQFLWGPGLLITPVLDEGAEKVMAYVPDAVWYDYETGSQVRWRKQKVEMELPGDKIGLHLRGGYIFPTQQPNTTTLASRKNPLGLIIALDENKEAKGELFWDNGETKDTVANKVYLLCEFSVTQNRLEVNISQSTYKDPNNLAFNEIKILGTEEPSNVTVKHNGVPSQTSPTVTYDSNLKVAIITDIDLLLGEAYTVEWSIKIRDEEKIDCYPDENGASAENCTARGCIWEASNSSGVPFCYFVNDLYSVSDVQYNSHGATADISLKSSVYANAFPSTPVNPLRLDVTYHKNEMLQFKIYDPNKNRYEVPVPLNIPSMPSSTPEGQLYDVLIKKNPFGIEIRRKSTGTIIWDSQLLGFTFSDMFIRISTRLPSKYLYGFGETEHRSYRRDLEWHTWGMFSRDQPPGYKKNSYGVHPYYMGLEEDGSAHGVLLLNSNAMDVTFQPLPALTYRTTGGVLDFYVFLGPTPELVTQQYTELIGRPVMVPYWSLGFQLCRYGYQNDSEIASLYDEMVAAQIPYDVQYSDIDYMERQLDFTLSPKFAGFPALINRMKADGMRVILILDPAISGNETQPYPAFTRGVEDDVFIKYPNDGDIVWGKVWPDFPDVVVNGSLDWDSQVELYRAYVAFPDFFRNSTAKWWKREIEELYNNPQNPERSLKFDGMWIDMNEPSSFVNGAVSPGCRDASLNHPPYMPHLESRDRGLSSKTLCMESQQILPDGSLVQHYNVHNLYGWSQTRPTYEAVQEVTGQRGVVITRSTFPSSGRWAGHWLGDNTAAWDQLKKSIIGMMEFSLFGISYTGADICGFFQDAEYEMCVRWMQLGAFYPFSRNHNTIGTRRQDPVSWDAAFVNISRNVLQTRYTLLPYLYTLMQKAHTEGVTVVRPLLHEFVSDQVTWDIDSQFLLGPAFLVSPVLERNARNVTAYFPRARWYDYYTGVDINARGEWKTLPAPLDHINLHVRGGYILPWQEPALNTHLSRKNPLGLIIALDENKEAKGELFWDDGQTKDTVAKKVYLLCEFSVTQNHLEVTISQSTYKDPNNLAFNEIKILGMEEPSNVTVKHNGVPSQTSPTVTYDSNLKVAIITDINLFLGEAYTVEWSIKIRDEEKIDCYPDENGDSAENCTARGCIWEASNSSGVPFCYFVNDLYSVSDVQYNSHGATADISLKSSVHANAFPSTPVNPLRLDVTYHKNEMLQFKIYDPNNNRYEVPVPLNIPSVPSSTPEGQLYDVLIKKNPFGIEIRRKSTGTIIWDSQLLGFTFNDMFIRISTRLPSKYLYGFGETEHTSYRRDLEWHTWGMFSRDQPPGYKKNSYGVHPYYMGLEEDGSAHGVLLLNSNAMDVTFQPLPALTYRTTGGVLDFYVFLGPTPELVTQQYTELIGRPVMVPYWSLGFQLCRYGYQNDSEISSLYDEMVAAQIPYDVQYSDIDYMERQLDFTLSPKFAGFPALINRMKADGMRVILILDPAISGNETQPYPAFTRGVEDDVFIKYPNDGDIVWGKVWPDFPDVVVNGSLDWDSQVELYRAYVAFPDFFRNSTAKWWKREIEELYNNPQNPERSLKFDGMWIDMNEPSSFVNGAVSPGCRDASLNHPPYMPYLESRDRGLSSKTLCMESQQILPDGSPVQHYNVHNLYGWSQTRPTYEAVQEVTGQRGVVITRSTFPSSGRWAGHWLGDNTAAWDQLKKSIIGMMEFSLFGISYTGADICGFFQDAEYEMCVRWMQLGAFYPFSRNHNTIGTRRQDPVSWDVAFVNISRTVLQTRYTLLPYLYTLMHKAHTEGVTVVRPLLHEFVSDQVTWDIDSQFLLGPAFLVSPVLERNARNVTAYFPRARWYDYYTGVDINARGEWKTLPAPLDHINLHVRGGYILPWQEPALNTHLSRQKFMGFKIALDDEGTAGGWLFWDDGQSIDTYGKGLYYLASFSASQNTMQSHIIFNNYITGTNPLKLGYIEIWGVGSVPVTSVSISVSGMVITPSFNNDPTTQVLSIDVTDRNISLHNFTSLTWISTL

The first assay concerns the target Maltase-glucoamylase (Homo sapiens, UniProt O43451). Nature of the assay: Inhibition of alpha-glucosidase (unknown origin).
Turning to `COc1cc(C(c2c(O)c3cc(Cl)ccc3oc2=O)c2c(O)c3cc(Cl)ccc3oc2=O)ccc1O`, the 50% inhibitory concentration (IC50) came to 83.6 µM.

As for `COc1cc(C(c2c(O)c3cc(Cl)ccc3oc2=O)c2c(O)c3cc(Cl)ccc3oc2=O)cc(OC)c1OC`, half-maximal inhibition (IC50) was put at 128 µM. On the same count and under the same terms, under `CCOc1cc(C(c2c(O)c3cc(C)ccc3oc2=O)c2c(O)c3cc(C)ccc3oc2=O)ccc1O` stands 221 µM; under `COc1ccc(C(c2c(O)c3cc(Cl)ccc3oc2=O)c2c(O)c3cc(Cl)ccc3oc2=O)cc1O`, 113 µM; under `O=c1oc2ccc(Cl)cc2c(O)c1C(c1cccc([N+](=O)[O-])c1)c1c(O)c2cc(Cl)ccc2oc1=O`, 27.1 µM. The compound `COc1ccc(C(c2c(O)c3cc(Cl)ccc3oc2=O)c2c(O)c3cc(Cl)ccc3oc2=O)cc1OC` yielded an IC50 of 91.4 µM.

In turn, `COc1ccc(C(c2c(O)c3cc(C)ccc3oc2=O)c2c(O)c3cc(C)ccc3oc2=O)cc1` [acs.jmedchem.1c00409_ST.500] yielded a 50% inhibitory concentration (IC50) of 107 µM. In turn, `O=c1oc2ccc(Cl)cc2c(O)c1C(c1ccc(Cl)cc1Cl)c1c(O)c2cc(Cl)ccc2oc1=O` registered a 50% inhibitory concentration (IC50) of 16.5 µM. As for `O=c1oc2ccc(Cl)cc2c(O)c1C(c1cccc(O)c1)c1c(O)c2cc(Cl)ccc2oc1=O`, the 50% inhibitory concentration (IC50) was found to be 84.1 µM. Same read-out and setting: under `COc1cc(C(c2c(O)c3cc(C)ccc3oc2=O)c2c(O)c3cc(C)ccc3oc2=O)cc(OC)c1OC` stands 386 µM; under `CCOc1cc(C(c2c(O)c3cc(Cl)ccc3oc2=O)c2c(O)c3cc(Cl)ccc3oc2=O)ccc1O`, 57.1 µM.

A further assay deals with Alpha-glucosidase (Saccharomyces cerevisiae). Nature of the assay: Inhibition of Saccharomyces cerevisiae alpha-glucosidase using pNPG as substrate incubated for 30 mins by microplate reader analysis.
In turn, `COc1cc2c(O)c(Oc3cc(O[C@@H]4O[C@H](CO)[C@@H](O)[C@H](O)[C@H]4O[C@@H]4O[C@H](CO)[C@@H](O)[C@H](O)[C@H]4O)c4ccc(=O)oc4c3)c(=O)oc2cc1O` returned a concentration for half-maximal inhibition (IC50) of 0.231 µM. Same read-out and setting: as for `O=c1ccc2ccc(Oc3cc4cc(O)c(O)cc4oc3=O)cc2o1` [6,7-dihydroxy-3,7'-dicoumaryl ether], the figure is 0.05 µM. The same measure, in the same setting: as for `COc1cc2cc(Oc3ccc4ccc(=O)oc4c3)c(=O)oc2cc1O` [Daphnoretin], the figure is 0.086 µM.
